Experimental data: paper PMC5399447, “Neuroprotective pentapeptide CN-105 is associated with reduced sterile inflammation and improved functional outcomes in a traumatic brain injury murine model” (Scientific Reports, 2017)

Tested on: 84 genes related to inflammatory and autoimmune processes
Experiment: Mouse Inflammatory Response and Autoimmunity PCR Array, whole brain
Assay type: in vivo
Parameters: key to Il9 ΔCt value, S-CN-105 / Il8ra ΔCt value, S-CN-105 / Il1rn ΔCt value, S-CN-105 / Il1f10 ΔCt value, S-CN-105 / Crp ΔCt value, S-CN-105: *: Indicate mRNA expression was below the level of detection
Settings: brain 24 h
Description: Frozen, pulverized whole brain tissue was processed for RNA extraction from a separate cohort of treated and untreated injured animals on days 1 post-injury(CN-105, n = 4; vehicle, n = 3; Control(sham-operated), n = 3). Total RNA was extracted from frozen, pulverized whole brain tissue using RNeasy Lipid Tissue Mini Kit(Qiagen, Valencia, CA). RNA quantity and quality was assessed with the NanoDrop ND-1000 spectrophotometer(NanoDrop Technologies, Inc., Wilmington, DE) and by agarose gel electrophoresis. Only samples with a 260/280 ratio between 1.9–2.1, and a 260/230 ratio greater than 2.0, were further processed. First strand complementary DNA(cDNA) was generated from 2 μg total RNA using the RT[2] First strand kit(SABiosciences, Frederick, MD.)
Gene expression was measured using the Mouse Inflammatory Response and Autoimmunity PCR Array(SABiosciences, Frederick, MD), which profiles the expression of 84 genes related to inflammatory and autoimmune processes. RT-PCR was performed according to manufacturer’s instructions Quality of the cDNA and PCR efficiency was verified by housekeeping genes and RT-PCR controls included in the PCR Array.
Raw RT-PCR data were analyzed using the Web-Based PCR Array Data Analysis software(SABiosciences). ΔCt values and ΔΔCt - based fold-change were calculated from raw threshold cycle data, using beta-actin and glyceraldehyde 3-phosphate dehydrogenase(GAPDH) as internal standards for normalization. Fold changes were then normalized against sham-operated controls.

Substance: Ac-VSRRR-amide [CN-105]
- Fos fold change TBI-CN-105/S-v (TBI CN-105 vs sham vehicle): 1.1
- Hdac4 fold change TBI-CN-105/S-v (TBI CN-105 vs sham vehicle): 13.9
- Ifng fold change TBI-CN-105/S-v (TBI CN-105 vs sham vehicle): 59.7
- Il1a fold change TBI-CN-105/S-v (TBI CN-105 vs sham vehicle): 37.7
- Il1b fold change TBI-CN-105/S-v (TBI CN-105 vs sham vehicle): 416.6
- Il1f10 fold change TBI-CN-105/S-v (TBI CN-105 vs sham vehicle): 352.3
- Il1r1 fold change TBI-CN-105/S-v (TBI CN-105 vs sham vehicle): −6.2
- Il1rap fold change TBI-CN-105/S-v (TBI CN-105 vs sham vehicle): −37.5
- Il1rn fold change TBI-CN-105/S-v (TBI CN-105 vs sham vehicle): 74.2
- Il6 fold change TBI-CN-105/S-v (TBI CN-105 vs sham vehicle): 13.2
- Il6ra fold change TBI-CN-105/S-v (TBI CN-105 vs sham vehicle): 47.9
- Il7 fold change TBI-CN-105/S-v (TBI CN-105 vs sham vehicle): 5569.8
- Il8ra fold change TBI-CN-105/S-v (TBI CN-105 vs sham vehicle): 196.8
- Il8rb fold change TBI-CN-105/S-v (TBI CN-105 vs sham vehicle): 658.4
- Il9 fold change TBI-CN-105/S-v (TBI CN-105 vs sham vehicle): 1155.5
- Il10 fold change TBI-CN-105/S-v (TBI CN-105 vs sham vehicle): 82.2
- Il10rb fold change TBI-CN-105/S-v (TBI CN-105 vs sham vehicle): 1.5
- Il18 fold change TBI-CN-105/S-v (TBI CN-105 vs sham vehicle): −9.5
- Il18rap fold change TBI-CN-105/S-v (TBI CN-105 vs sham vehicle): 58.6
- Il22 fold change TBI-CN-105/S-v (TBI CN-105 vs sham vehicle): 77.8
- Il22ra2 fold change TBI-CN-105/S-v (TBI CN-105 vs sham vehicle): 3448.3
- Il23a fold change TBI-CN-105/S-v (TBI CN-105 vs sham vehicle): 838.4
- Il23r fold change TBI-CN-105/S-v (TBI CN-105 vs sham vehicle): 7.2
- Itgb2 fold change TBI-CN-105/S-v (TBI CN-105 vs sham vehicle): 9.6
- Lta fold change TBI-CN-105/S-v (TBI CN-105 vs sham vehicle): 917.0
- Ltb fold change TBI-CN-105/S-v (TBI CN-105 vs sham vehicle): 75.7
- Ly96 fold change TBI-CN-105/S-v (TBI CN-105 vs sham vehicle): 19.9
- Myd88 fold change TBI-CN-105/S-v (TBI CN-105 vs sham vehicle): 8.5
- Nfatc3 fold change TBI-CN-105/S-v (TBI CN-105 vs sham vehicle): 364.7
- Nfkb1 fold change TBI-CN-105/S-v (TBI CN-105 vs sham vehicle): −3.1
- Nos2 fold change TBI-CN-105/S-v (TBI CN-105 vs sham vehicle): 1779.4
- Nr3c1 fold change TBI-CN-105/S-v (TBI CN-105 vs sham vehicle): −17.8
- Ripk2 fold change TBI-CN-105/S-v (TBI CN-105 vs sham vehicle): 30.1
- Tirap fold change TBI-CN-105/S-v (TBI CN-105 vs sham vehicle): 14.0
- Tlr1 fold change TBI-CN-105/S-v (TBI CN-105 vs sham vehicle): 15.4
- Tlr2 fold change TBI-CN-105/S-v (TBI CN-105 vs sham vehicle): 10.0
- Tlr3 fold change TBI-CN-105/S-v (TBI CN-105 vs sham vehicle): 3.9
- Tlr4 fold change TBI-CN-105/S-v (TBI CN-105 vs sham vehicle): 6.5
- Tlr5 fold change TBI-CN-105/S-v (TBI CN-105 vs sham vehicle): 2.5
- Tlr6 fold change TBI-CN-105/S-v (TBI CN-105 vs sham vehicle): 14.9
- Tlr7 fold change TBI-CN-105/S-v (TBI CN-105 vs sham vehicle): 546.2
- Tnf fold change TBI-CN-105/S-v (TBI CN-105 vs sham vehicle): 1367.7
- Tnfsf14 fold change TBI-CN-105/S-v (TBI CN-105 vs sham vehicle): 365.9
- Tollip fold change TBI-CN-105/S-v (TBI CN-105 vs sham vehicle): −3.2
- Bcl6 ΔCt value, S-CN-105 (sham + CN-105 0.05 mg/kg iv): 6.6E − 02
- C3ar1 ΔCt value, S-CN-105 (sham + CN-105 0.05 mg/kg iv): 4.1E − 03
- C3 ΔCt value, S-CN-105 (sham + CN-105 0.05 mg/kg iv): 7.0E − 04
- C4b ΔCt value, S-CN-105 (sham + CN-105 0.05 mg/kg iv): 7.0E − 03
- Ccl1 ΔCt value, S-CN-105 (sham + CN-105 0.05 mg/kg iv): 2.3E − 05
- Ccl2 ΔCt value, S-CN-105 (sham + CN-105 0.05 mg/kg iv): 8.3E − 04
- Ccl3 ΔCt value, S-CN-105 (sham + CN-105 0.05 mg/kg iv): 8.0E − 04
- Ccl4 ΔCt value, S-CN-105 (sham + CN-105 0.05 mg/kg iv): 3.8E − 04
- Ccl5 ΔCt value, S-CN-105 (sham + CN-105 0.05 mg/kg iv): 1.1E − 03
- Ccl7 ΔCt value, S-CN-105 (sham + CN-105 0.05 mg/kg iv): 1.6E − 03
- Ccl8 ΔCt value, S-CN-105 (sham + CN-105 0.05 mg/kg iv): 2.1E − 03
- Ccl11 ΔCt value, S-CN-105 (sham + CN-105 0.05 mg/kg iv): 2.5E − 04
- Ccl12 ΔCt value, S-CN-105 (sham + CN-105 0.05 mg/kg iv): 6.5E − 03
- Ccl17 ΔCt value, S-CN-105 (sham + CN-105 0.05 mg/kg iv): 4.2E − 03
- Ccl19 ΔCt value, S-CN-105 (sham + CN-105 0.05 mg/kg iv): 2.9E − 02
- Ccl20 ΔCt value, S-CN-105 (sham + CN-105 0.05 mg/kg iv): 1.1E − 04
- Ccl22 ΔCt value, S-CN-105 (sham + CN-105 0.05 mg/kg iv): 3.8E − 04
- Ccl24 ΔCt value, S-CN-105 (sham + CN-105 0.05 mg/kg iv): 9.7E − 05
- Ccl25 ΔCt value, S-CN-105 (sham + CN-105 0.05 mg/kg iv): 1.4E − 02
- Ccr1 ΔCt value, S-CN-105 (sham + CN-105 0.05 mg/kg iv): 7.1E − 04
- Ccr2 ΔCt value, S-CN-105 (sham + CN-105 0.05 mg/kg iv): 5.5E − 04
- Ccr3 ΔCt value, S-CN-105 (sham + CN-105 0.05 mg/kg iv): 2.1E − 03
- Ccr4 ΔCt value, S-CN-105 (sham + CN-105 0.05 mg/kg iv): 6.0E − 06
- Ccr7 ΔCt value, S-CN-105 (sham + CN-105 0.05 mg/kg iv): 2.1E − 04
- Cd40lg ΔCt value, S-CN-105 (sham + CN-105 0.05 mg/kg iv): 6.9E − 05
- Cd40 ΔCt value, S-CN-105 (sham + CN-105 0.05 mg/kg iv): 8.3E − 04
- Cebpb ΔCt value, S-CN-105 (sham + CN-105 0.05 mg/kg iv): 1.1E − 01
- Crp ΔCt value, S-CN-105 (sham + CN-105 0.05 mg/kg iv): *
- Csf1 ΔCt value, S-CN-105 (sham + CN-105 0.05 mg/kg iv): 1.9E − 02
- Cxcl1 ΔCt value, S-CN-105 (sham + CN-105 0.05 mg/kg iv): 1.6E − 04
- Cxcl2 ΔCt value, S-CN-105 (sham + CN-105 0.05 mg/kg iv): 2.8E − 04
- Cxcl3 ΔCt value, S-CN-105 (sham + CN-105 0.05 mg/kg iv): 2.3E − 05
- Cxcl5 ΔCt value, S-CN-105 (sham + CN-105 0.05 mg/kg iv): 2.5E − 03
- Cxcl9 ΔCt value, S-CN-105 (sham + CN-105 0.05 mg/kg iv): 1.0E − 04
- Cxcl10 ΔCt value, S-CN-105 (sham + CN-105 0.05 mg/kg iv): 1.9E − 03
- Cxcl11 ΔCt value, S-CN-105 (sham + CN-105 0.05 mg/kg iv): 9.0E − 05
- Cxcr4 ΔCt value, S-CN-105 (sham + CN-105 0.05 mg/kg iv): 6.6E − 03
- Fasl ΔCt value, S-CN-105 (sham + CN-105 0.05 mg/kg iv): 1.9E − 04
- Flt3l ΔCt value, S-CN-105 (sham + CN-105 0.05 mg/kg iv): 3.0E − 03
- Fos ΔCt value, S-CN-105 (sham + CN-105 0.05 mg/kg iv): 2.3E − 01
- Hdac4 ΔCt value, S-CN-105 (sham + CN-105 0.05 mg/kg iv): 9.1E − 02
- Ifng ΔCt value, S-CN-105 (sham + CN-105 0.05 mg/kg iv): 5.8E − 05
- Il1a ΔCt value, S-CN-105 (sham + CN-105 0.05 mg/kg iv): 1.9E − 03
- Il1b ΔCt value, S-CN-105 (sham + CN-105 0.05 mg/kg iv): 2.0E − 03
- Il1f10 ΔCt value, S-CN-105 (sham + CN-105 0.05 mg/kg iv): *
- Il1r1 ΔCt value, S-CN-105 (sham + CN-105 0.05 mg/kg iv): 1.2E − 02
- Il1rap ΔCt value, S-CN-105 (sham + CN-105 0.05 mg/kg iv): 4.4E − 02
- Il1rn ΔCt value, S-CN-105 (sham + CN-105 0.05 mg/kg iv): *
- Il6ra ΔCt value, S-CN-105 (sham + CN-105 0.05 mg/kg iv): 4.9E − 03
- Il6 ΔCt value, S-CN-105 (sham + CN-105 0.05 mg/kg iv): 1.1E − 04
- Il7 ΔCt value, S-CN-105 (sham + CN-105 0.05 mg/kg iv): 3.2E − 04
- Il8ra ΔCt value, S-CN-105 (sham + CN-105 0.05 mg/kg iv): *
- Il8rb ΔCt value, S-CN-105 (sham + CN-105 0.05 mg/kg iv): 6.1E − 05
- Il9 ΔCt value, S-CN-105 (sham + CN-105 0.05 mg/kg iv): *
- Il10rb ΔCt value, S-CN-105 (sham + CN-105 0.05 mg/kg iv): 3.0E − 02
- Il10 ΔCt value, S-CN-105 (sham + CN-105 0.05 mg/kg iv): 1.1E − 04
- Il18rap ΔCt value, S-CN-105 (sham + CN-105 0.05 mg/kg iv): 4.5E − 05
- Il18 ΔCt value, S-CN-105 (sham + CN-105 0.05 mg/kg iv): 1.8E − 01
